Test results published in patent US10214492B2, “Heterocyclic inhibitors of MCT4” (Vettore, LLC, priority 2016, dated 2019).

Experiments:
[1] = Metabolic stability in human liver microsomes (in vitro t1/2); format: in vitro ADME; conditions: for half-life at 2 µM: human liver microsomes 0.5 mg/mL, 2 μM compound, read-out: Human microsome t1/2, min; for Human microsome % 60 min: human liver microsomes
Procedure, shortened: (§1)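 Test compound (2 μM final) was added to NADPH-supplemented microsomes at 0.5 mg/mL protein and sampled over 60 min (0–60 min time points). In vitro t1/2 was calculated as −0.693/k, with k the slope of ln percent parent remaining, measured by LC-MS/MS, against time.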

[2] = Metabolic stability in mouse liver microsomes (in vitro t1/2); format: in vitro ADME; conditions: for half-life at 2 µM / Mouse microsome t1/2, min: mouse liver microsomes 0.5 mg/mL, 2 μM compound; for half-life at 2 µM: read-out: Mouse microsome t1/2, min; for Mouse microsome % 60 min: mouse liver microsomes
Procedure, shortened: as §1

[3] = Adjuvant-induced arthritis model in rat: Difference of Weight Bearing test (DWB); format: in vivo; conditions: SD rat, CFA-induced arthritis; PO 3 days post CFA; compared to Dexamethasone
[4] = Adjuvant-induced arthritis model in rat: Mechanical Allodynia test (MA, Von Frey); format: in vivo; conditions: SD rat, CFA-induced arthritis; PO 3 days post CFA; compared to Dexamethasone
[5] = Pharmacokinetic assay in mouse (IV 3 mg/kg, PO 10 mg/kg); format: in vivo; conditions: Male CD1 mouse; for Mouse F: oral bioavailability; for Mouse F / half-life: PO 10 mg/kg; for half-life / Vd: plasma; for half-life: read-out: Mouse t1/2 (converted); for Vd: volume of distribution, read-out: Mouse Vss
Source text: (§2) The following are assays that may be used to evaluate the pharmacokinetic properties of Formula (I) in mouse or rat. The assays follow a common procedure recited below.
(§3) 1. […] For PO (oral gavage), DMSO/PEG400 (10:90). Formulations freshly prepared on the day of dosing or prior to dosing. Storage at room temperature.
(§4) 2. Test Species: For Mouse: Male CD1 strain, approximately 6-8 weeks in age, approximately 20-30 g. For Rat: Male Sprague-Dawley strain, approximately 6-8 weeks in age, approximately 200-300 g.
(§5) 3. Dose Level: For IV, 3 mg/kg. For PO, 10 mg/kg.
(§6) 4. Number of animals: 3 per assay.
(§7) 5. PK time points: For IV (plasma): 5 min, 15 min, 1, 2, 4, 6, 8, 24 h post dose. For PO (plasma): 15 min, 30 min, 1, 2, 4, 6, 8, 24 h post dose.
(§8) 6. Blood Sample Collection and Processing. Blood was collected (˜0.2 mL per time point) from jugular vein. Blood of each sample was transferred into plastic micro centrifuge tubes containing anticoagulant of EDTA-K2. Blood samples were centrifuged at 2,000 g for 5 minutes at 4° C. to obtain plasma.
(§9) 7. Samples Analysis: Plasma samples were analyzed using LC/MS/MS method, and pharmacokinetic parameters (half-life: t1/2; oral bioavailability: F; volume of distribution: Vss).

[6] = Pharmacokinetic assay in rat (IV 3 mg/kg, PO 10 mg/kg); format: in vivo; conditions: Male Sprague-Dawley rat; for Rat F: oral bioavailability; for Rat F / half-life: PO 10 mg/kg; for half-life / Vd: plasma; for half-life: read-out: Rat t1/2 (converted); for Vd: volume of distribution, read-out: Rat Vss
Source text: as §2, §3, §4, §5, §6, §7, §8, §9

MCT1 = MCT1 (Homo sapiens (Human), UniProt P53985); assay: Assay 4: MCT1-mediated lactate transport in BT20 breast cancer cells; format: cell-based; conditions: Table 27
MCT1, sequence (P53985 whole entry): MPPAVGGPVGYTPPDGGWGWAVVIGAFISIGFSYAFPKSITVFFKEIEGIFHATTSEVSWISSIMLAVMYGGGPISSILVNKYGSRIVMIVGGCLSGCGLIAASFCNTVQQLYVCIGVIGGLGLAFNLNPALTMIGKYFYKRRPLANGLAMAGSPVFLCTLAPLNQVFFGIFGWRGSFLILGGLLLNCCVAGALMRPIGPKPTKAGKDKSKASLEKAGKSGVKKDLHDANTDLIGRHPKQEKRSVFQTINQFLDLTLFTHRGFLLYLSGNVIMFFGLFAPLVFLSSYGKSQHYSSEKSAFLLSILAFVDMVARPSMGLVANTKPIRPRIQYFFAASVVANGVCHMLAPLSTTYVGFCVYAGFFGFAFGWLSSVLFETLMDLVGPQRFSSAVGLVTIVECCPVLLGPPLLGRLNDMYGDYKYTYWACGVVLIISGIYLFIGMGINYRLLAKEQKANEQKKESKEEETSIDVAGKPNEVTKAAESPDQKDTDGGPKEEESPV
MCT1, sequence (P35613 140-385 partner): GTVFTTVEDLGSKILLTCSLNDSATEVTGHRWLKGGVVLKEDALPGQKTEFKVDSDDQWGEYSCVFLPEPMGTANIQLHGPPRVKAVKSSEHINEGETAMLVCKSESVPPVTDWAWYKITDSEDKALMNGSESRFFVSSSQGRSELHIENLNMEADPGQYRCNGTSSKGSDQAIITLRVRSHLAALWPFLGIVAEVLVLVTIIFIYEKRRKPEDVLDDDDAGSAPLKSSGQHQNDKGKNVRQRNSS
Procedure, shortened: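 Transport started with 10 mM L-lactate on BCECF-loaded BT20 cells in Tyrode's Solution, pH 7.4. Dye loading: BCECF-AM ester (30 mM DMSO stock), 5 min at 37° C, then one wash.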

[7] = Metabolic stability in rat liver microsomes (in vitro t1/2); format: in vitro ADME; conditions: for half-life at 2 µM: rat liver microsomes 0.5 mg/mL, 2 μM compound, read-out: Rat microsome t1/2, min; for Rat microsome % 60 min: rat liver microsomes
Procedure, shortened: as §1

MCT4 = MCT4 (Homo sapiens (Human), UniProt O15427); assay: Assay 3: MCT4-mediated lactate transport in MDA-MB-231 breast cancer cells; format: cell-based; conditions: MDA-MB-231 cells; lactate transport
MCT4, sequence (O15427 whole entry, looked up): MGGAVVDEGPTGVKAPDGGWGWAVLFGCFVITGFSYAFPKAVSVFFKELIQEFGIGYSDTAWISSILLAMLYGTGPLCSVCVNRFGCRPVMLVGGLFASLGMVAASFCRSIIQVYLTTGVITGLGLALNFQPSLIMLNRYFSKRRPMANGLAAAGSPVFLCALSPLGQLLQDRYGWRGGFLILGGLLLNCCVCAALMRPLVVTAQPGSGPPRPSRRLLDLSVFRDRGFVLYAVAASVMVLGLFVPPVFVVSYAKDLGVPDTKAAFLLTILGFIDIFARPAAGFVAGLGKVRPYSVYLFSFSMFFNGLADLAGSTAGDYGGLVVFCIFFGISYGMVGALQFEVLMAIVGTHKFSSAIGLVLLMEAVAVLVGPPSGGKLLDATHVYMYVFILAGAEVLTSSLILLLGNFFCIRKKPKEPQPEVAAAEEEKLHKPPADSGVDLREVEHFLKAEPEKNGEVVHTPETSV
MCT4, sequence (P35613 whole entry partner, looked up): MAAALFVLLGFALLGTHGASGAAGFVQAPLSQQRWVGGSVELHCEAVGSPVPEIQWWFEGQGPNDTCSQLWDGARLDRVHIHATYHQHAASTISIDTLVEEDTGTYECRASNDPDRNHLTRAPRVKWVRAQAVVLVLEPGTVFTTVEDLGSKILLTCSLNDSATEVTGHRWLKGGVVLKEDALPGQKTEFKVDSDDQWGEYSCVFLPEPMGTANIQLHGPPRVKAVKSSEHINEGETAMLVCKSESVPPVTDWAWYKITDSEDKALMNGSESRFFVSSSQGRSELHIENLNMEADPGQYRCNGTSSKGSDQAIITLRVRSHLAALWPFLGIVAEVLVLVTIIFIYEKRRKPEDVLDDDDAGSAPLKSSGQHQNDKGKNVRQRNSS
Procedure, shortened: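 Read-out is BCECF fluorescence tracking the intracellular pH shift from MCT4-mediated lactate/H+ co-transport. Before measurement, MDA-MB-231 cells take up BCECF-AM for 5 min at 37° C, then are washed into Tyrode's Solution, pH 7.4.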

| SMILES | half-life at 2 µM [1] [min] | Human microsome % 60 min [1] [%] | half-life at 2 µM [2] [min] | Mouse microsome % 60 min [2] [%] | Difference in Weight Bearing, Minimal Efficacious Dose [3] [mg/kg] | Mechanical Allodynia (Von Frey), Minimal Efficacious Dose [4] [mg/kg] | Mouse F [5] [%] | half-life [5] [min] | Vd [5] [L/kg] | Rat F [6] [%] | half-life [6] [min] | Vd [6] [L/kg] | IC50 (MCT1) [nM] | Mouse microsome t1/2, min [2] | half-life at 2 µM [7] [min] | Rat microsome % 60 min [7] [%] | IC50 (MCT4) [nM] |
| --- | --- | --- | --- | --- | --- | --- | --- | --- | --- | --- | --- | --- | --- | --- | --- | --- | --- |
| COc1cccc(-c2cc(COC(C)(C)C(=O)O)nn2Cc2ccccc2Cl)c1 [Example 14, 2-([1-[(2-Chlorophenyl)methyl]-5-(3-methoxyphenyl)1H-pyrazol-3-yl]methoxy)-2-methylpropanoic acid] | 245 | 82 | 1300 | 95 | 30 | 30 | 100 | 324 | 0.79 | 64 | 228 | 1.3 | – | – | – | – | – |
| COc1cc(OC)cc(-c2cc(COC(C)(C)C(=O)O)nn2-c2ccccc2Cl)c1 [Example 179, 2-([1-(2-Chlorophenyl)-5-(3,5-dimethoxy-phenyl)-1H-pyrazol-3-yl]methoxy)-2-methylpropanoic acid] | 644 | 93 | – | 98 | ≤10 | <10 | – | – | – | 76 | 132 | 0.3 | > 100000 | ∞ | 318 | 85 | 13 |
| CCOc1cc(OCC)cc(-c2cc(COC(C)(C)C(=O)O)nn2-c2ccccc2Cl)c1 [Example 180, 2-([1-(2-Chlorophenyl)-5-(3,5-diethoxy-phenyl)-1H-pyrazol-3-yl]methoxy)-2-methylpropanoic acid] | 276 | 88 | – | 103 | >10 | >10 | – | – | – | 49 | 264 | 0.39 | 28000 | ∞ | 2290 | 98 | 2.9 |
| Cn1ncc2cccc(-n3nc(COC(C)(C)C(=O)O)cc3-c3cccc(OC4CC4)c3)c21 [Example 191, 2-([5-(3-Cyclopropoxyphenyl)-1-(1-methyl-1H-indazol-7-yl)-1H-pyrazol-3-yl]-methoxy)-2-methylpropanoic acid] | 1400 | 98 | 1000 | 97 | >10 | >10 | – | – | – | 97 | 378 | 1 | 16000 | – | 556 | 94 | 17 |
| COc1cc(OC)cc(-c2cc(COC(C)(C)C(=O)O)nn2Cc2ccccc2Cl)c1 [Example 224, 2-([1-[(2-Chlorophenyl)methyl]-5-(3,5-di-methoxyphenyl)-1H-pyrazol-3-yl]methoxy)-2-methylpropanoic acid] | 736 | 91 | 829 | 98 | ≤10 | ≤10 | – | – | – | 53 | 156 | 1.3 | 30000 | – | 132 | 73 | 4.1 |
| CC(C)(OCc1cc(-c2cccc(OC3CCC3)c2)n(-c2ccccc2N2CCC2)n1)C(=O)O [Example 260, 2-([1-[2-(Azetidin-1-yl)phenyl]-5-(3-cyclobutoxyphenyl)-1H-pyrazol-3-yl]methoxy)-2-methylpropanoic acid] | – | – | – | – | 1 | 1 | 86 | 312 | 0.22 | 85 | 222 | 0.2 | 26000 | – | – | – | 0.83 |
| CCOc1ccccc1Cn1nc(CO[C@](C)(CC)C(=O)O)cc1-c1cc(OC)cc(OC)c1 [Example 264, (2R)-2-([5-(3,5-Dimethoxyphenyl)-1-[(2-ethoxyphenyl)methyl]-1H-pyrazol-3-yl]methoxy)-2-methylbutanoic acid] | – | – | – | – | 1 | 1 | 94 | 162 | 1.1 | 100 | 276 | 2.5 | 10000 | – | – | – | 0.35 |
| CC[C@@](C)(OCc1cc(-c2cccc(OC3CC3)c2)n(-c2ccccc2N2CCC2)n1)C(=O)O [Example 266] | – | – | – | – | 3 | 3 | 100 | 228 | 0.36 | 100 | 162 | 0.23 | 64000 | – | – | – | 0.36 |
| CCCn1ncc2ccc(-c3cc(CO[C@](C)(CC)C(=O)O)nn3-c3ccccc3N3CCC3)cc21 [Example 267, (2R)-2-([1-(2-(azetidin-1-yl)phenyl]-5-(1-propyl-1H-indazol-6-yl)-1H-pyrazol-3-yl]methoxy)-2-methylbutanoic acid] | – | – | – | – | 3 | 3 | 64 | 198 | 3.9 | 54 | 156 | 7.7 | 11000 | – | – | – | 0.57 |
| CCn1ncc2ccc(-c3cc(CO[C@](C)(CC)C(=O)O)nn3-c3ccccc3N3CCCC3)cc21 [Example 268, (2R)-2-([5-(1-ethyl-1H-indazol-6-yl)-1-[2-(pyrrolidin-1-yl)phenyl)-1H-pyrazol-3-yl]methoxy)-2-methylbutanoic acid] | – | – | – | – | 1 | 1 | 77 | 162 | 0.77 | 57 | 132 | 0.76 | 36000 | – | – | – | 0.3 |
